Reference: patent US20220288231A1, “METHODS AND COMPOSITIONS FOR REDUCING GENE OR NUCLEIC ACID THERAPY-RELATED IMMUNE RESPONSES” (Generation Bio Co., priority 2019, published 2022)
“Also recorded” adds a separate entry of the source. Structures can show the parent of a compound that is named as a salt.

Experiments:
[1] = tested on: IRF-inducible luciferase reporter in RAW-ISG cells; assay: IFN reporter assay in RAW-ISG cells; type: cell-based, murine; conditions: for inhibitory effects on murine ISG system / induction of IRF: 0.1 μM, 1.0 μM and 10 μM, ceDNA
Procedure: Finally, IFN reporter assays were conducted in RAW-ISG cells. RAW-ISG cells are generated from the murine macrophage cell line by stable integration of an interferon regulatory factor (IRF)-inducible luciferase reporter construct. […] Another potent TKI compound selected for this assay was BMS-986165 which is a known antagonist of TYK2.

[2] = tested on: THP1-ISG cells; assay: THP1-ISG cell viability assay (ATP activity and LDH release); conditions: 10 μM, 1.0 μM and 0.1 μM; 24 hours
[3] = In vivo tolerability and body weight with TKI and ceDNA; set-up: species or system mice
Procedure: The immunosuppressant selected for initial in vivo cytokine/chemokine panel assays were afatinib, brigatinib, dacomitinib, dasatinib, saracatinib, fostamatinib, cerdulatinib, ruxolitinib, and cobimetinib. […] The high and low dose concentrations immunosuppressants are as follows: afatinib (H: 200 mg/kg/day; L: 25 mg/kg/day), brigatinib (H: 50 mg/kg/day; L: 10 mg/kg/day), dacomitinib (H: 30 mg/kg/day; L: 10 mg/kg/day), dasatinib (H: 30 mg/kg/day; L: 10 mg/kg/day), saracatinib (H: 50 mg/kg/day; L: 10 mg/kg/day), fostamatinib (H: 500 mg/kg/day; L: 100 mg/kg/day), cerdulatinib (H: 30 mg/kg/day; L: 5 mg/kg/day), ruxolitinib (H: 300 mg/kg/day; L: 60 mg/kg/day) and cobimetinib (H: 10 mg/kg/day; L: 3 mg/kg/day). Formulations were mixed by pipetting prior to administration to distribute particulates of oral gavage suspension. TKI or vehicle for Groups 3-24 were dosed on Days -2, -1, 0 and 1 by oral gavage at 10 mL/kg. TKI for Group 25 were dosed on Days -2, -1, 0 and 1 by oral gavage at 20 mL/kg. TKI for Group 26 was dosed on Days -2, -1, 0 and 1 by intraperitoneal (IP) administration at 20 mL/kg. […] Otherwise, TKIs were administered at approximately the same time each day ([…] dosed at 0.2 mg/kg on Day 0 for all experimental groups by intravenous administration via lateral tail vein. […] Polycytidylic acid potassium salt (PolyC) and […] […] Body weights for all animal were recorded.

[4] = tested on: serum proinflammatory cytokines and chemokines in response to ceDNA; assay: In vivo cytokine/chemokine panel after ceDNA (Construct A) dosing; set-up: species or system mice; conditions: for serum IP-10 level: repeat experiment; for cytokines expression after ceDNA dosing: LNP: Construct A at 0.2 mg/Kg
Procedure: The immunosuppressant selected for initial in vivo cytokine/chemokine panel assays were afatinib, brigatinib, dacomitinib, dasatinib, saracatinib, fostamatinib, cerdulatinib, ruxolitinib, and cobimetinib. […] The high and low dose concentrations immunosuppressants are as follows: afatinib (H: 200 mg/kg/day; L: 25 mg/kg/day), brigatinib (H: 50 mg/kg/day; L: 10 mg/kg/day), dacomitinib (H: 30 mg/kg/day; L: 10 mg/kg/day), dasatinib (H: 30 mg/kg/day; L: 10 mg/kg/day), saracatinib (H: 50 mg/kg/day; L: 10 mg/kg/day), fostamatinib (H: 500 mg/kg/day; L: 100 mg/kg/day), cerdulatinib (H: 30 mg/kg/day; L: 5 mg/kg/day), ruxolitinib (H: 300 mg/kg/day; L: 60 mg/kg/day) and cobimetinib (H: 10 mg/kg/day; L: 3 mg/kg/day). Formulations were mixed by pipetting prior to administration to distribute particulates of oral gavage suspension. TKI or vehicle for Groups 3-24 were dosed on Days -2, -1, 0 and 1 by oral gavage at 10 mL/kg. TKI for Group 25 were dosed on Days -2, -1, 0 and 1 by oral gavage at 20 mL/kg. TKI for Group 26 was dosed on Days -2, -1, 0 and 1 by intraperitoneal (IP) administration at 20 mL/kg. […] Otherwise, TKIs were administered at approximately the same time each day ([…] dosed at 0.2 mg/kg on Day 0 for all experimental groups by intravenous administration via lateral tail vein. Animals were monitored continuously while under anesthesia, during recovery and until mobile. […] Polycytidylic acid potassium salt (PolyC) and […] (Construct A) were used as controls. […] Body weights for all animal were recorded.

[5] = tested on: immune response to ceDNA; type: in vivo, mice; conditions: −0.5 h and 5 h regimen compared to −48 hr, −24 h, −1.5 h and 24 h regimen; 300 mg/kg
Source text: FIG. 14 depicts two different dosing time arrangements of TKI treatment. […]. […]

[6] = tested on: immune response to ceDNA (Construct A: hAAT-Luciferase); assay: ceDNA dose escalation study with TKI; type: in vivo; conditions: 2 mg/kg ceDNA formulated in LNP; ruxolitinib 300 mg/kg
Procedure: An in vivo study with dose escalation of ceDNA was conducted to evaluate the effect of ceDNA at a high dose in the presence of the TKI (ruxolitinib at a high dose of 300 mg/kg and fostamatinib at a high dose of 500 mg/kg). In this study, four experimental groups were dosed with increasing doses of 0.2 mg/kg, 0.5 mg/kg, 1 mg/kg, or 2 mg/kg of ceDNA (Construct A: hAAT-Luciferase) formulated in LNPs.

[7] = tested on: luciferase expression of ceDNA (Construct A); assay: In-life imaging (IVIS) of ceDNA luciferase expression; type: in vivo, mice; conditions: day 6; compared among TKI groups
Procedure: Expression levels of ceDNA as detected by luciferase (IVIS for luciferase) was measured at day 6, 14, 21, 28, and 35 in all groups (FIG. 8). Polycytidylic acid potassium salt (PolyC) and […] ceDNA (Construct A) were used as controls. Both polyC and Construct A were formulated in LNP and used as controls for in groups in which no ceDNA was dosed to evaluate the effect of LNPs. Body weights for all animal were recorded.

[8] = 0.2 mg/kg ceDNA, blood 6 hours post dose
[9] = high dose of TKI with Construct A:LNP vehicle

## [2H]C([2H])([2H])NC(=O)c1nnc(NC(=O)C2CC2)cc1Nc1cccc(-c2ncn(C)n2)c1OC [BMS-986165, BMS986165 Tyk2-IN-4]
[1]
  inhibitory effects, ranking among more than 30 compounds tested: most significant inhibitory effects
  inhibitory effects on murine ISG system / induction of IRF: significant inhibitory effects

## Cl.Cn1cc(-c2nc(N[C@@H]3CCCC[C@@H]3N)c(F)c3c2C(=O)NC3)cn1 [TAK-659]
[2]
  toxicity in vitro (ATP activity): mostly non-toxic

## CN(C)C/C=C/C(=O)Nc1cc2c(Nc3ccc(F)c(Cl)c3)ncnc2cc1O[C@H]1CCOC1 [afatinib, Afatinib/ Afatinib Dimaleate]
[3]; with ceDNA, particularly at a high dose
  body loss: 7-8%

## c1cn2cc(-c3ccc4cn[nH]c4c3)nc(Nc3ccc(N4CCOCC4)cc3)c2n1 [entoplestinib, Entosplestinib]
[2]
  toxicity in vitro (ATP activity): mostly non-toxic

## COc1cc(Nc2ncc(F)c(Nc3ccc4c(n3)N(COP(=O)(O)O)C(=O)C(C)(C)O4)n2)cc(OC)c1OC [fostamatinib, Fostamatinib/ Fostamatinib disodium]
[1]
  inhibitory effects, ranking among more than 30 compounds tested: most significant inhibitory effects
  inhibitory effects on murine ISG system / induction of IRF: significant inhibitory effects
[4]; 0.2 mg/kg ceDNA
  suppressing cytokines and chemokine levels: stood out
  type I and type II IFNs responses: effectively attenuated
  serum IP-10 level: successfully exerted immunosuppressive effects
[4]; [8]
  serum interferon-α (IFN-α) level: successfully exerted immunosuppressive effects
  serum interferon-γ (IFN-γ) level: successfully exerted immunosuppressive effects
  serum interleukin-6 (IL-6) level: successfully exerted immunosuppressive effects
  serum interleukin-18 (IL-18) level: successfully exerted immunosuppressive effects
  serum tumor necrosis factor-α (TNF-α) level: successfully exerted immunosuppressive effects
[4]
  cytokines expression after ceDNA dosing: drastically reduce

## Cc1ccc(NC(=O)c2ccc(CN3CCN(C)CC3)cc2)cc1Nc1nccc(-c2cccnc2)n1 [imatinib, Imatinib/ Imatinib mesylate]
[2]
  toxicity in vitro (ATP activity): mostly non-toxic

## N#CC[C@H](C1CCCC1)n1cc(-c2ncnc3[nH]ccc23)cn1 [ruxolitinib, Ruxolitinib/ Ruxolitinib phosphate/ S-ruxolitinib]
[1]
  inhibitory effects, ranking among more than 30 compounds tested: most significant inhibitory effects
  inhibitory effects on murine ISG system / induction of IRF: significant inhibitory effects
[3]; TKI with 0.2 mg/kg ceDNA
  body weight change: a certain level of weight gains
[5]
  immunosuppression: improved immunosuppression
[4]; 0.2 mg/kg ceDNA
  serum MCP-1 level: significant reduction
  serum MIP-1α (CCL3) level: significant reduction
  serum MIP-1β (CCL4) level: significant reduction
  serum Rantes (CCL5) level: significant reduction
  suppressing cytokines and chemokine levels: stood out
  type I and type II IFNs responses: effectively attenuated
  serum IP-10 level: successfully exerted immunosuppressive effects
[4]; [8]
  serum interferon-α (IFN-α) level: significant reductions; also recorded: successfully exerted immunosuppressive effects
  serum interferon-γ (IFN-γ) level: significant reductions; also recorded: successfully exerted immunosuppressive effects
  serum interleukin-6 (IL-6) level: significant reductions; also recorded: successfully exerted immunosuppressive effects
  serum interleukin-18 (IL-18) level: significant reductions; also recorded: successfully exerted immunosuppressive effects
  serum level: significant reductions
  serum tumor necrosis factor-α (TNF-α) level: significant reductions; also recorded: successfully exerted immunosuppressive effects
[4]
  cytokines expression after ceDNA dosing: drastically reduce
[4]; [9]
  serum IFN-α level: no detectable
  serum IFN-γ level: no detectable
  serum IL-6 level: no detectable
[6]
  tolerability: well tolerated
[7]
  ceDNA transgene expression levels: highest level

## CNC(=O)c1cc(Oc2ccc(NC(=O)Nc3ccc(Cl)c(C(F)(F)F)c3)cc2)ccn1 [sorafinib, Sorafenib]
[2]
  toxicity in vitro (ATP activity): mostly non-toxic

## CCN(CC)CCNC(=O)c1c(C)[nH]c(/C=C2\C(=O)Nc3ccc(F)cc32)c1C [sunitinib, Sunitinib]
[2]
  toxicity in vitro (ATP activity): mostly non-toxic
